From US20210382058A1, “PATIENT SELECTION FOR TREATMENT OF MYC POSITIVE CANCERS WITH INDENOISOQUINOLINES” (Purdue Research Foundation, priority 2020, published 2021)
Like-named read-outs stand apart in the source and are kept apart here.

Tests used:
[1] = tested on: MYC protein expression in MCF-7 breast cancer cells; assay: Western blotting of MYC protein level in MCF-7 cells; format: cell-based, human; conditions: MCF-7, 0.5, 1, 2, and 4 μM, 24 h
Summary of the method: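 Immunoblotting with ECL detection quantified MYC, with GAPDH (1:2000) as reference and anti-MYC at 1:1000.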

NCI-60 cancer cell lines = assay: NCI-60 cancer cell line drug screen (GI50, MGM); format: cell-based, human; conditions: Homo sapiens; for GI50: read-out: Antiproliferative Activities [GI50 (μM)]
Experimental: Cancer cells were incubated with the test compounds at five concentrations ranging from 100 μM to 10 nM for 48 h. […] The approximate average of GI50 values across the entire panel of NCI-60 cancer cell lines for each compound was recorded as the MGM value.

human topoisomerase I = target: T1, human topoisomerase I (Homo sapiens, UniProt P11387); conditions: relative topoisomerase I inhibition levels, previously determined, six levels (0 - 5, +++++ = 5); cited from earlier work
T1 sequence (P11387 1-765): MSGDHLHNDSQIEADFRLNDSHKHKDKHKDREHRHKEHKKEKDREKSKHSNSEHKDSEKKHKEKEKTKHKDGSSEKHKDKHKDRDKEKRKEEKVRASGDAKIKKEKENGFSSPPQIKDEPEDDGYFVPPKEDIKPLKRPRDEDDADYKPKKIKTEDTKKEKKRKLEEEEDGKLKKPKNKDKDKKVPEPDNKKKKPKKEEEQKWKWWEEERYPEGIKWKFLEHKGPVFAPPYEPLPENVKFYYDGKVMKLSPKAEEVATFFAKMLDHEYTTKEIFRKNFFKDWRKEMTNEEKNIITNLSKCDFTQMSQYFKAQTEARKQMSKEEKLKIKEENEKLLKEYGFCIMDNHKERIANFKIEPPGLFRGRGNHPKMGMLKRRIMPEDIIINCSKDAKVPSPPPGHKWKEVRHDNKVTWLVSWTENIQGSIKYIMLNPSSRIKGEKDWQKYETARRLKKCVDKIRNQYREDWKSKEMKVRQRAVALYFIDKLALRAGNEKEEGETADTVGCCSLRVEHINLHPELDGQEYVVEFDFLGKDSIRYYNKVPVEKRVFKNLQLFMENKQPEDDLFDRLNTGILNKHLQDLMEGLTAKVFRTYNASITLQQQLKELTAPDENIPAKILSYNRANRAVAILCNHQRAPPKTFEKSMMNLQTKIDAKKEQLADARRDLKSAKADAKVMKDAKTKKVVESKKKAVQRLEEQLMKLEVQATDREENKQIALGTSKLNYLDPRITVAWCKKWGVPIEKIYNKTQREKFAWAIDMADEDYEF

In the case of `COc1cnc2c(c1)C(=O)c1c-2n(CCCN2CCCC2)c(=O)c2cc([N+](=O)[O-])ccc12` [Compound 9], the “MYC-inhibitory effect (MYC protein, western blot)” value [1] is reported as “clear MYC-inhibitory effect”, the GI50 (NCI-60 cancer cell lines; 786-0, Renal Cancer, 786-0) is reported as 0.03 µM and the GI50 (NCI-60 cancer cell lines; A549, Non-Small Cell Lung Cancer, A549/ATCC) is reported as 0.05 µM. The GI50 (NCI-60 cancer cell lines; ACHN, Renal Cancer, ACHN) was < 0.01 µM, the GI50 (NCI-60 cancer cell lines; BT-549, Breast Cancer, BT-549) was 0.35 µM and the GI50 (NCI-60 cancer cell lines; CAKI-1, Renal Cancer, CAKI-1) was < 0.01 µM. For the same compound, the GI50 (NCI-60 cancer cell lines; CCRF-CEM, Leukemia, CCRF-CEM) was < 0.01 µM, the GI50 (NCI-60 cancer cell lines; COLO 205, Colon Cancer, COLO 205) was 0.04 µM and the GI50 (NCI-60 cancer cell lines; DU-145, Prostate Cancer, DU-145) was 0.02 µM. It also gave a GI50 (NCI-60 cancer cell lines; EKVX, Non-Small Cell Lung Cancer, EKVX) of 0.3 µM, a GI50 (NCI-60 cancer cell lines; HCC 2998, Colon Cancer, HCC-2998) of 0.16 µM and a GI50 (NCI-60 cancer cell lines; HCT-15, Colon Cancer, HCT-15) of 0.06 µM. The GI50 (NCI-60 cancer cell lines; HCT-116, Colon Cancer, HCT-116) was < 0.01 µM, the GI50 (NCI-60 cancer cell lines; HL-60, Leukemia, HL-60(TB)) was 0.03 µM and the GI50 (NCI-60 cancer cell lines; HOP-62, Non-Small Cell Lung Cancer, HOP-62) was < 0.01 µM. It also gave a GI50 (NCI-60 cancer cell lines; HOP-92, Non-Small Cell Lung Cancer, HOP-92) of 0.55 µM, a GI50 (NCI-60 cancer cell lines; HT-29, Colon Cancer, HT29) of 0.02 µM and a GI50 (NCI-60 cancer cell lines; Hs-578T, Breast Cancer, HS 578T) of 1.91 µM. It also gave a GI50 (NCI-60 cancer cell lines; IGROV-1, Ovarian Cancer, IGROV1) of 0.02 µM, a GI50 (NCI-60 cancer cell lines; K562, Leukemia, K-562) of 0.02 µM and a GI50 (NCI-60 cancer cell lines; KM12, Colon Cancer, KM12) of 0.14 µM. For the same compound, the GI50 (NCI-60 cancer cell lines; LOX IMVI, Melanoma, LOX IMVI) was < 0.01 µM, the GI50 (NCI-60 cancer cell lines; Leukemia, SR) was < 0.01 µM and the GI50 (NCI-60 cancer cell lines; MCF7, Breast Cancer, MCF7) was < 0.01 µM. The GI50 (NCI-60 cancer cell lines; MDA-MB-231, Breast Cancer, MDA-MB-231/ATCC) was 0.68 µM, the GI50 (NCI-60 cancer cell lines; MDA-MB-435, Melanoma, MDA-MB-435) was 0.06 µM and the GI50 (NCI-60 cancer cell lines; MDA-MB-468, Breast Cancer, MDA-MB-468) was 0.03 µM. The GI50 (NCI-60 cancer cell lines; MOLT-4, Leukemia, MOLT-4) was < 0.01 µM, the GI50 (NCI-60 cancer cell lines; Malme-3M, Melanoma, MALME-3M) was 0.06 µM and the GI50 (NCI-60 cancer cell lines; Melanoma, M14) was < 0.01 µM. For the same compound, the GI50 (NCI-60 cancer cell lines; NCI-H23, Non-Small Cell Lung Cancer, NCI-H23) was 0.03 µM, the GI50 (NCI-60 cancer cell lines; NCI-H226, Non-Small Cell Lung Cancer, NCI-H226) was 0.1 µM and the GI50 (NCI-60 cancer cell lines; NCI-H322M, Non-Small Cell Lung Cancer, NCI-H322M) was 0.05 µM. For the same compound, the GI50 (NCI-60 cancer cell lines; NCI-H460, Non-Small Cell Lung Cancer, NCI-H460) was < 0.01 µM, the GI50 (NCI-60 cancer cell lines; NCI-H522, Non-Small Cell Lung Cancer, NCI-H522) was 0.06 µM and the GI50 (NCI-60 cancer cell lines; OVCAR-3, Ovarian Cancer, OVCAR-3) was 0.06 µM. The GI50 (NCI-60 cancer cell lines; OVCAR-4, Ovarian Cancer, OVCAR-4) was 0.08 µM, the GI50 (NCI-60 cancer cell lines; OVCAR-5, Ovarian Cancer, OVCAR-5) was 0.16 µM and the GI50 (NCI-60 cancer cell lines; OVCAR-8, Ovarian Cancer, OVCAR-8) was 0.09 µM. The GI50 (NCI-60 cancer cell lines; Ovarian Cancer, NCl/ADR-RES) was 0.03 µM, the GI50 (NCI-60 cancer cell lines; Prostate Cancer, PC-3) was 0.07 µM and the GI50 (NCI-60 cancer cell lines; RPMI-8226, Leukemia, RPMI-8226) was 0.04 µM. The GI50 (NCI-60 cancer cell lines; RXF 393, Renal Cancer, RXF 393) was 0.06 µM, the GI50 (NCI-60 cancer cell lines; Renal Cancer, U0-31) was < 0.01 µM and the GI50 (NCI-60 cancer cell lines; SF-268, CNS Cancer, SF-268) was 0.02 µM. The GI50 (NCI-60 cancer cell lines; SF-295, CNS Cancer, SF-295) was < 0.01 µM, the GI50 (NCI-60 cancer cell lines; SF-539, CNS Cancer, SF-539) was 0.03 µM and the GI50 (NCI-60 cancer cell lines; SK-MEL-2, Melanoma, SK-MEL-2) was 1.01 µM. For the same compound, the GI50 (NCI-60 cancer cell lines; SK-MEL-5, Melanoma, SK-MEL-5) was 0.07 µM, the GI50 (NCI-60 cancer cell lines; SK-MEL-28, Melanoma, SK-MEL-28) was 10.6 µM and the GI50 (NCI-60 cancer cell lines; SK-OV-3, Ovarian Cancer, SK-OV-3) was 0.03 µM. The GI50 (NCI-60 cancer cell lines; SN12C, Renal Cancer, SN12C) was 0.04 µM, the GI50 (NCI-60 cancer cell lines; SNB-19, CNS Cancer, SNB-19) was 0.04 µM and the GI50 (NCI-60 cancer cell lines; SNB-75, CNS Cancer, SNB-75) was 0.05 µM. For the same compound, the GI50 (NCI-60 cancer cell lines; SW-620, Colon Cancer, SW-620) was < 0.01 µM, the GI50 (NCI-60 cancer cell lines; T47D, Breast Cancer, T-47D) was 0.02 µM and the GI50 (NCI-60 cancer cell lines; TK-10, Renal Cancer, TK-10) was 0.37 µM. The GI50 (NCI-60 cancer cell lines; U-251, CNS Cancer, U251) was 0.01 µM, the GI50 (NCI-60 cancer cell lines; UACC-62, Melanoma, UACC-62) was 0.02 µM and the GI50 (NCI-60 cancer cell lines; UACC-257, Melanoma, UACC-257) was 0.18 µM. For the same compound, the mean GI50 across NCI-60 panel (MGM) (NCI-60 cancer cell lines; average of GI50 values across the entire panel of NCI-60 cancer cell lines) was 45 nM and the “Top1 Inhibiton” value (human topoisomerase I) was “++ (medium inhibition, ++, MYC expression inhibited at 2.0 μM, or no clear dose-dependent MYC inhibition)”.
